From patent US6479231B1, “Fluorescence-based assay for the interaction of small molecules with the human renal organic anion transporter 1 (hOAT1)” (Gilead Sciences, Inc., priority 1999, dated 2002)
Where two headings read alike, the source gives them in different places.

Columns and labels:
[1] = biological target: T1, hOAT1 (Homo sapiens, UniProt Q4U2R8); test: Fluorescent transport assay: accumulation of fluorescent organic anions in CHO^hOAT vs CHO^pIRES cells; details: 10 μM fluorescent anion, 10 min, room temperature
T1 sequence (Q4U2R8 1-550 isoform Q4U2R8-2): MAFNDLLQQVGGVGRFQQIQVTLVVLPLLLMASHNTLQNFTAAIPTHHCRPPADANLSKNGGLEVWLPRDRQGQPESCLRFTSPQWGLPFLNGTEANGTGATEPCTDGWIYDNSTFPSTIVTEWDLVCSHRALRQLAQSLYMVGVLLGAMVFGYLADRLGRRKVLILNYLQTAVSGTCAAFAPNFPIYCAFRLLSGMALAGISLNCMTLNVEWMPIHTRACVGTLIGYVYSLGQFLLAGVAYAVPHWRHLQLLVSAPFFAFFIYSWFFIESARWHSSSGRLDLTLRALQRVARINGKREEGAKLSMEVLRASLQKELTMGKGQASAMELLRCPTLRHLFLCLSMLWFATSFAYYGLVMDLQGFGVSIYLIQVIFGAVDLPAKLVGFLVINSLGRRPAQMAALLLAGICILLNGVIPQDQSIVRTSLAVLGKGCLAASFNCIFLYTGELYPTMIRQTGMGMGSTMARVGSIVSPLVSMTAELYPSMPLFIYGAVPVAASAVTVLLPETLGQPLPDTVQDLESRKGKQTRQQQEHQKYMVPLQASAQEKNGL

[2] = biological target: T1, hOAT1; details: for Vmax of hOAT1-specific transport / Km: room temperature; for Km: read-out: Km of hOAT1-specific transport
Method: First, a time-course of hOAT1-specific uptake of 6-CFL at various concentrations ranging from 0.31 to 20 μM was determined.
Kinetics of 6-CFL transport mediated by hOAT1. (a) Time course of hOAT1-specific uptake of 6-CFL. CHO^pIRES and CHO^hOAT cells in 96-well plates were incubated at room temperature with 6-CFL at concentrations ranging from 0.31 to 20 μM. At specific time points, the uptake was terminated by washing the cells with ice-cold PBS. After cell lysis, the intracellular fluorescence was determined and the net hOAT1-specific uptake was calculated after the subtraction of non-specific background uptake into CHO^pIRES cells determined under the identical conditions. […] (b) Saturation curve of the hOAT1-specific uptake of 6-CFL at 4-min time points. Km and Vmax values were estimated from the double-reciprocal plot (inset).

[3] = biological target: T1, hOAT1; test: Fluorescence-based inhibition assay: inhibition of 6-CFL uptake into CHO^hOAT cells; format: cell-based; set-up: expressed in transfected cells; vector pIRESneo
[4] = biological target: T1, hOAT1; test: Transport kinetics with the radioactive substrates in CHO^hOAT cells; format: cell-based; set-up: expressed in transfected cells; vector pIRESneo; details: radiolabeled substrates, 3 min at 37° C, mean ± standard error, three to five experiments
Method: The assays were carried out in 12-well plates with nearly confluent cells seeded 48 hours prior to each experiment. Immediately before the experiment, the cells were washed with PBS pre-warmed to 37° C. Pre-warmed Waymouth buffer ([…]) containing radiolabeled substrate at various concentrations was added to the cells and incubated for 3 min at 37° C. At the end of incubation, the cells were washed 3-times with ice-cold PBS (2 ml/well) and lysed directly on the plate in the presence of 0.4% Triton X-100 (0.5 ml/well) for at least 20 min. Subsequently, the wells were washed with an additional 0.5 ml of the detergent, the lysate and wash were combined, and radioactivity in each sample was determined after adding 6 ml of scintillation fluid (Beckman Instruments, Fullerton, Calif.). Km values were estimated by the linear regression from double reciprocal plots using Enzyme Kinetics software (ChemSW, Fairfield, Calif.).

[5] = 4-min endpoints, double reciprocal plot

Structure (SMILES): O=C(O)c1ccc2c(c1)C1(OC2=O)c2ccc(O)cc2Oc2cc(O)ccc21 [6-CFL, 6-carboxyfluorescein]
- accumulation in CHO^hOAT cells relative to control CHO^pIRES cells [1]: approximately 15 fold
- transport efficiency (Vmax/Km ratio) [2]: comparable to that of PAH
- Vmax of hOAT1-specific transport ([2]; 2-min endpoints): 19.7 pmol/10^6 cells·min
- Vmax of hOAT1-specific transport [2, 5]: 17.8 pmol/10^6 cells·min
- Km ([2]; 2-min endpoints): 3.95 µM
- Km [2, 5]: 3.93 µM

Structure (SMILES): CC1=C(C(=O)O)N2C(=O)[C@@H](NC(=O)[C@H](N)C3=CCC=CC3)[C@H]2SC1 [Cephradine]
- inhibition of 6-CFL transport (in words) [3]: inhibited the transport of 6-CFL

Structure (SMILES): Nc1ccn(C[C@@H](CO)OCP(=O)(O)O)c(=O)n1 [Cidofovir, (S)-1-(3-hydroxy-2-phosphonylmethoxypropyl)cytosine]
- inhibition of 6-CFL transport (in words) [3]: inhibited the transport of 6-CFL

Structure (SMILES): Nc1ccn(C[C@H]2COP(=O)(O)CO2)c(=O)n1 [Cyclic prodrug of cidofovir, [((S)-1-2-hydroxy-2-oxo-1,4,2-dioxaphosphorinan-5-yl)methyl]cytosine]
- Km [4]: 309 ± 106 µM
- inhibition of 6-CFL transport (in words) [3]: inhibited the transport of 6-CFL

Structure (SMILES): Nc1ncnc2c1ncn2CCOCP(=O)(O)O [Adefovir, 9-(2-phosphonylmethoxyethyl)adenine]
- Km [4]: 23.8 ± 4.2 µM
- inhibition of 6-CFL transport (in words) [3]: inhibited the transport of 6-CFL

Structure (SMILES): CC(C(=O)O)c1cccc(C(=O)c2ccccc2)c1 (centres unmarked) [Ketoprofen]
- inhibition of 6-CFL transport (in words) [3]: inhibited the transport of 6-CFL

Structure (SMILES): O=C(O)c1ccc2c(c1)C(=O)OC21c2ccc(O)cc2Oc2cc(O)ccc21 [5-CFL, 5-carboxyfluorescein]
- hOAT1-mediated transport / accumulation (in words) ([1]; CHO^hOAT and CHO^pIRES cells): accumulated at very low levels both in CHO^hOAT and CHO^pIRES cells
